Experimental data: patent US9452980B2, “Substituted benzamides” (Hoffmann-La Roche Inc., priority 2009, dated 2016)
Structures can show the parent of a compound that is named as a salt. Where two headings read alike, the source gives them in different places.

Experiments:
mouse TAAR1 = mouse TAAR1 (Mus musculus (Mouse), UniProt Q923Y8); assay: Radioligand binding assay on mouse TAAR1; settings: read-out: Ki (μM) mouse
How it was run: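 Membranes were from HEK293 cells stably expressing mouse TAAR1. Compounds from 10 pM to 10 μM, in duplicate, competed with [3H]-(S)-4-[(ethyl-phenyl-amino)-methyl]-4,5-dihydro-oxazol-2-ylamine for 1 h at 4 °C. Nonspecific binding was defined with 10 μM unlabelled ligand, and bound radioactivity was read by filtration and scintillation.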

rat TAAR1 = rat TAAR1 (Rattus norvegicus (Rat), UniProt Q923Y9); assay: Radioligand binding assay on rat TAAR1; settings: read-out: Ki (μM) rat
Sequence of rat TAAR1 (Q923Y9 whole entry): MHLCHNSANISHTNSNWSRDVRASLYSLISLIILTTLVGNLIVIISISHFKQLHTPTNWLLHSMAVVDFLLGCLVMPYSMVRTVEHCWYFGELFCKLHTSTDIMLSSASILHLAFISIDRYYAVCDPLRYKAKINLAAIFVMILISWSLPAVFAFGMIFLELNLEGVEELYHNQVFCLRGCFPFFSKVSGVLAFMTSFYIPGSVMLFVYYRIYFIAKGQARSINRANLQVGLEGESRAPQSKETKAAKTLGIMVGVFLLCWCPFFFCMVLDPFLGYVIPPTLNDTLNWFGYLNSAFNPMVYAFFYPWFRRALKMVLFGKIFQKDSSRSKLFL
How it was run: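 Membranes from HEK293 cells stably expressing rat TAAR1, with Kd checked per batch by saturation. Competition with ³H-(S)-4-[(ethyl-phenyl-amino)-methyl]-4,5-dihydro-oxazol-2-ylamine, compounds 10 pM–10 μM in duplicate, 1 hr at 4 °C. Filtration then scintillation counting; nonspecific binding defined with 10 μM unlabeled ligand.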

[1] = mouse TAAR1, HEK-293 membranes, first value of cell mouse/rat
[2] = rat TAAR1, HEK-293 membranes, second value of cell mouse/rat

Sequence of mouse TAAR1 (Q923Y8 whole entry): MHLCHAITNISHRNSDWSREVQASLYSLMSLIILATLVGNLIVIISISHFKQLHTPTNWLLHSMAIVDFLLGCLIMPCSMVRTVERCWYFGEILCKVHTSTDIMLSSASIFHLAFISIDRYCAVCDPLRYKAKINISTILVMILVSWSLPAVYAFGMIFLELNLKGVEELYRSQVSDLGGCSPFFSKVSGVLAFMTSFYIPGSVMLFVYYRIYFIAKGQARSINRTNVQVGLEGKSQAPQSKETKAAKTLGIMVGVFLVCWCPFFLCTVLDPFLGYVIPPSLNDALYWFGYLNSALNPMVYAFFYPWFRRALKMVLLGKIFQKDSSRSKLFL

Row | Structure (SMILES) | Ki (mouse TAAR1; [1]) [µM] | Ki (rat TAAR1; [2]) [µM] | Ki (mouse TAAR1) [µM] | Ki (rat TAAR1) [µM]
1 | O=C(Nc1ccc(CCC2CCCCN2)cc1)c1cnc(Cl)cn1 (racemic) [Example 174, (RS)-5-Chloro-N-(4-(2-(piperidin-2-yl)ethyl)phenyl)pyrazine-2-carboxamide hydrochloride] | 0.437 | 0.0159 | – | –
2 | O=C(Nc1ccc(CCC2CCCCN2)cc1)c1ccc(C(F)(F)F)cc1 (racemic) [Example 175, (RS)—N-(4-(2-(Piperidin-2-yl)ethyl)phenyl)-4-(trifluoromethyl)benzamide hydrochloride] | 0.0473 | 0.0027 | – | –
3 | O=C(Nc1ccc(CCC2CCCCN2)cc1)c1ccc(Cl)c(Cl)c1 (racemic) [Example 176, (RS)-3,4-Dichloro-N-(4-(2-(piperidin-2-yl)ethyl)phenyl)benzamide hydrochloride] | 0.0253 | 0.001 | – | –
4 | C#Cc1ccc(C(=O)Nc2ccc(CCC3CCCCN3)cc2)cc1 (racemic) [Example 177, (RS)-4-Ethynyl-N-(4-(2-(piperidin-2-yl)ethyl)phenyl)benzamide hydrochloride] | 0.114 | 0.0067 | – | –
5 | O=C(Nc1ccc(C2CCCNC2)cc1)c1ccc(OCC(F)(F)F)nc1 (racemic) [Example 178, (RS)—N-(4-(Piperidin-3-yl)phenyl)-6-(2,2,2-trifluoroethoxy)nicotinamide hydrochloride] | 0.0032 | 0.002 | – | –
6 | CCOc1ccc(C(=O)Nc2ccc(C3CCCNC3)cc2)nc1 (racemic) [Example 179, (RS)-5-Ethoxy-pyridine-2-carboxylic acid (4-piperidin-3-yl-phenyl)-amide; hydrochloride] | 0.0008 | 0.0022 | – | –
7 | O=C(Nc1ccc(C2CCCNC2)cc1)c1ccc(F)cn1 (racemic) [Example 180, (RS)-5-Fluoro-N-(4-(piperidin-3-yl)phenyl)picolinamide hydrochloride] | 0.0507 | 0.0131 | – | –
8 | Cc1ccc(C(=O)Nc2ccc(C3CCNC3)cc2)cc1 (racemic) [Example 182, (RS)-4-Methyl-N-(4-(pyrrolidin-3-yl)phenyl)benzamide hydrochloride] | – | 0.0025 | 0.0253 | –
9 | Cc1ccc(C(=O)Nc2ccc(C3CCCNC3)cc2)cc1 (racemic) [Example 185, (RS)-4-Methyl-N-(4-(piperidin-3-yl)phenyl)benzamide hydrochloride] | 0.0333 | 0.0026 | – | –
10 | COc1ccc(C(=O)Nc2ccc(C3CCCNC3)cc2)cc1 (racemic) [Example 186, (RS)-4-Methoxy-N-(4-(piperidin-3-yl)phenyl)benzamide hydrochloride] | 0.0486 | 0.0027 | – | –
11 | O=C(Nc1ccc(C2CNCCO2)cc1)c1ccccc1 (racemic) [Example 188, (RS)—N-(4-(Morpholin-2-yl)phenyl)benzamide hydrochloride] | 0.138 | – | – | 0.0055
12 | Cc1ccc(C(=O)Nc2ccc(C3CNCCO3)cc2)cc1 (racemic) [Example 189, (RS)-4-Methyl-N-(4-(morpholin-2-yl)phenyl)benzamide hydrochloride] | 0.0343 | 0.0016 | – | –
13 | COc1ccc(C(=O)Nc2ccc(C3CNCCO3)cc2)cc1 (racemic) [Example 190, (RS)-4-Methoxy-N-(4-(morpholin-2-yl)phenyl)benzamide hydrochloride] | 0.0501 | 0.0021 | – | –
14 | O=C(Nc1ccc(C2CCCNC2)cc1)c1ccc(OCC(F)(F)F)cn1 (racemic) [Example 191, (RS)—N-(4-(Piperidin-3-yl)phenyl)-5-(2,2,2-trifluoroethoxy)picolinamide hydrochloride] | 0.011 | 0.0074 | – | –
15 | O=C(Nc1ccc(C2CNCCO2)cc1)c1ccc(OCc2ccccc2)cc1 (racemic) [Example 192, (RS)-4-(benzyloxy)-N-(4-(morpholin-2-yl)phenyl)benzamide hydrochloride] | 0.0052 | 0.0113 | – | –
16 | O=C(Nc1ccc(C2CNCCO2)cc1)c1ccc(Cl)nc1 (racemic) [Example 193, (RS)-6-chloro-N-(4-(morpholin-2-yl)phenyl)nicotinamide hydrochloride] | 0.0406 | – | – | 0.0034
17 | N#Cc1ccc(C(=O)Nc2ccc(C3CNCCO3)cc2)cn1 (racemic) [Example 194, (RS)-2-(4-(6-cyanonicotinamido)phenyl)morpholin-4-ium chloride] | 0.0982 | 0.005 | – | –
18 | CCOc1ccc(C(=O)Nc2ccc(C3CNCCO3)cc2)cc1 (racemic) [Example 197, (RS)-4-Ethoxy-N-(4-(morpholin-2-yl)phenyl)benzamide hydrochloride] | 0.0177 | – | – | 0.0016

Row | Structure (SMILES) | Ki (mouse TAAR1; [1]) [µM] | Ki (rat TAAR1; [2]) [µM] | Ki (mouse TAAR1) [µM] | Ki (rat TAAR1) [µM]
19 | CCc1ccc(C(=O)Nc2ccc(C3CNCCO3)cc2)cc1 (racemic) [Example 198, (RS)-4-Ethyl-N-(4-(morpholin-2-yl)phenyl)benzamide hydrochloride] | 0.0147 | 0.0028 | – | –
20 | O=C(Nc1ccc(C2CNCCO2)cc1)c1ccc(O)cc1 (racemic) [Example 199, (RS)-4-Hydroxy-N-(4-(morpholin-2-yl)phenyl)benzamide hydrochloride] | 1.16 | 0.238 | – | –
21 | O=C(Nc1ccc(C2CNCCO2)cc1)c1ccc(Oc2ccc(Cl)cc2)cc1 (racemic) [Example 206, (RS)-4-(4-Chlorophenoxy)-N-(4-(morpholin-2-yl)phenyl)benzamide hydrochloride] | 0.0026 | 0.0011 | – | –
22 | O=C(Nc1ccc(C2CNCCO2)cc1)c1cccc(Cl)c1 (racemic) [Example 209, (RS)-3-chloro-N-(4-(morpholin-2-yl)phenyl)benzamide hydrochloride] | 0.0078 | 0.0016 | – | –
23 | O=C(Nc1ccc(C2CNCCO2)cc1)c1cncc(Cl)c1 (racemic) [Example 210, (RS)-5-chloro-N-(4-(morpholin-2-yl)phenyl)nicotinamide hydrochloride] | 0.0436 | 0.0062 | – | –
24 | COC(=O)c1ccc(COc2ccc(C(=O)Nc3ccc(C4CNCCO4)cc3)cc2)cc1 (racemic) [Example 211, (RS)-Methyl 4-((4-(4-(morpholin-2-yl)phenylcarbamoyl)phenoxy)methyl)benzoate hydrochloride] | 0.004 | 0.0009 | – | –
25 | O=C(O)c1ccc(COc2ccc(C(=O)Nc3ccc(C4CNCCO4)cc3)cc2)cc1 (racemic) [Example 212, (RS)-4-((4-(4-(morpholin-2-yl)phenylcarbamoyl)phenoxy)methyl)benzoic acid hydrochloride] | 2.5 | 0.296 | – | –
26 | COC(=O)c1ccc(Oc2ccc(C(=O)Nc3ccc(C4CNCCO4)cc3)cc2)cc1Cl (racemic) [Example 213, (RS)-Methyl 2-chloro-4-(4-(4-(morpholin-2-yl)phenylcarbamoyl)phenoxy)benzoate hydrochloride] | 0.0012 | 0.001 | – | –
27 | O=C(Nc1ccc(C2CNCCO2)cc1)c1ccc(OCC2CC2)cc1 (racemic) [Example 214, (RS)-4-Cyclopropylmethoxy-N-(4-morpholin-2-yl-phenyl)-benzamide hydrochloride] | – | 0.0016 | 0.0057 | –
28 | O=C(Nc1ccc(C2CNCCO2)cc1)c1ccc(Oc2ccc(C(=O)O)c(Cl)c2)cc1 (racemic) [Example 215, (RS)-2-Chloro-4-(4-(4-(morpholin-2-yl)phenylcarbamoyl)phenoxy)benzoic acid hydrochloride] | 2.82 | 2.31 | – | –
29 | CSc1ccc(C(=O)Nc2ccc(C3CNCCO3)cc2)cc1 (racemic) [Example 216, (RS)-4-(Methylthio)-N-(4-(morpholin-2-yl)phenyl)benzamide hydrochloride] | 0.0176 | – | – | 0.0012
30 | Cc1nc(C(=O)Nc2ccc(C3CNCCO3)cc2)cs1 (racemic) [Example 217, (RS)-2-Methyl-N-(4-(morpholin-2-yl)phenyl)thiazole-4-carboxamide hydrochloride] | 0.335 | 0.0941 | – | –
31 | O=C(Nc1ccc(C2CNCCO2)cc1)c1ccnc(Cl)c1 (racemic) [Example 218, (RS)-2-Chloro-N-(4-(morpholin-2-yl)phenyl)isonicotinamide hydrochloride] | 0.0872 | 0.0087 | – | –
32 | O=C(Nc1ccc(C2CNCCO2)cc1)c1cnc(Cl)c(Cl)c1 (racemic) [Example 219, (RS)-5,6-Dichloro-N-(4-(morpholin-2-yl)phenyl)nicotinamide hydrochloride] | 0.0059 | 0.0031 | – | –
33 | CC(CO)(CCl)COc1ccc(C(=O)Nc2ccc(C3CNCCO3)cc2)cc1 (racemic) [Example 220, (RS)-4-(2-Chloromethyl-3-hydroxy-2-methyl-propoxy)-N-(4-morpholin-2-yl-phenyl)-benzamide] | 0.0435 | 0.0024 | – | –
34 | O=C(Nc1ccc(C2CNCCO2)cc1)c1cc(Cl)nc(Cl)c1 (racemic) [Example 221, (RS)-2,6-Dichloro-N-(4-(morpholin-2-yl)phenyl)isonicotinamide hydrochloride] | – | – | 0.005 | 0.0037
35 | O=C(Nc1ccc(C2CNCCO2)cc1)c1ccc(OCC(F)(F)F)nc1 (racemic) [Example 222, (RS)—N-(4-(Morpholin-2-yl)phenyl)-6-(2,2,2-trifluoroethoxy)nicotinamide hydrochloride] | – | – | 0.0037 | 0.0033
36 | CC1(COc2ccc(C(=O)Nc3ccc(C4CNCCO4)cc3)cc2)COC1 (racemic) [Example 228, (RS)-4-((3-Methyloxetan-3-yl)methoxy)-N-(4-(morpholin-2-yl)phenyl)benzamide] | 0.199 | 0.0608 | – | –
